# Source: patent US9066977B2, “Method of utilization of combination of benzophenone derivative or salt thereof and immunosuppressing agent, and pharmaceutical composition comprising these components” (TOYAMA CHEMICAL CO., LTD., priority 2008, dated 2015)
# Columns and labels:
# [1] = system: mouse type II collagen-induced arthritis; assay: Combined use of compound A and methotrexate on mouse type II collagen-induced arthritis (Test Example 1); assay type: in vivo; conditions: male DBA/1J mice, day following final administration
# Protocol: Eight-week-old male DBA/1J mice (9 or 10 mice per group; Charles River Laboratories Japan) were used. A 2 mg/mL bovine type II collagen dissolved in a 0.1 mol/L acetic acid solution (Koken Co., Ltd.) was mixed with an equal volume of Freund's complete adjuvant (BD Diagnostic Systems) to prepare an emulsion. The emulsion (0.2 mL) was intradermally injected at the hip of each mouse. Twenty-one days after the primary immunization, the same treatment was carried out (secondary immunization), so that type II collagen arthritis was induced.
# Compound A was dissolved in a 2-fold molar amount of sodium hydroxide solution, and a 3-fold weight of polyvinylpyrrolidone was then added to the solution, followed by dilution with distilled water. The concentration of compound A in a compound A (1 mg/kg)-dosing solution was adjusted to be 0.1 mg/mL. Methotrexate was suspended in 0.5% methylcellulose solution. The concentration of methotrexate in methotrexate (0.5 mg/kg)-dosing solution was adjusted to be 0.05 mg/mL. Each dosing solution was orally administered to the mice.
# To control group, polyvinylpyrrolidone solution and 0.5% methylcellulose solution were orally administered. […]
# The knuckle portion and the articulations of wrist and tarsus portions of the four paws of each mouse were evaluated using the following 4 scores. […]
# [2] = system: mouse type II collagen-induced arthritis; assay: Combined use of compound A and dexamethasone on mouse type II collagen-induced arthritis (Test Example 2); assay type: in vivo; conditions: male DBA/1J mice, day following final administration
# Protocol: Eight-week-old male DBA/1J mice (8-10 mice per group; Charles River Laboratories Japan) were used. The induction of mouse type II collagen arthritis was conducted by the method according to Test Example 1.
# Compound A was dissolved in a 2-fold molar amount of sodium hydroxide solution, and a 3-fold weight of polyvinylpyrrolidone was then added to the solution, followed by dilution with distilled water. The concentrations of compound A in compound A (1 mg/kg and 10 mg/kg)-dosing solutions were adjusted to be 0.1 mg/mL and 1.0 mg/mL. The concentration of compound A in a compound A (1 mg/kg)-dosing solution in combined administration was adjusted to be 0.2 mg/mL. Dexamethasone was suspended in polyvinylpyrrolidone solution. The concentration of dexamethasone in dexamethasone (0.025 mg/kg)-dosing solution was adjusted to be 0.0025 mg/mL. The concentration of dexamethasone in dexamethasone (0.025 mg/kg)-dosing solution in combined administration was adjusted to be 0.005 mg/mL. Each dosing solution was orally administered to the mice.
# To control group, polyvinylpyrrolidone solution was orally administered.
# After dividing into groups, and the second immunization, compound A and dexamethasone were administered once a day for 14 days.
# The evaluation to mouse arthritis was conducted by the method according to Test Example 1.
# [3] = Compound A 1 mg/kg orally once a day for 14 days
smiles,measurement,setting,value
"O=C(O)CCc1cc(C(=O)c2ccc(OC3CCCC3)cc2O)ccc1OCc1ccc2c(O)noc2c1 [Compound A, 3-(5-(4-(cyclopentyloxy)-2-hydroxybenzoyl)-2-((3-hydroxy-1,2-benzisoxazol-6-yl)methoxy)phenyl)propionic acid]",Arthritis inhibition rate (%),[1]; [3],19%
same,Arthritis inhibition rate (%),[2]; [3],14%
same,Arthritis inhibition rate (%),[2]; Compound A 10 mg/kg orally once a day for 14 days,58%
"CN(Cc1cnc2nc(N)nc(N)c2n1)c1ccc(C(=O)N[C@@H](CCC(=O)O)C(=O)O)cc1 [Methotrexate, reference compound]",Arthritis inhibition rate (%),[1]; Methotrexate 0.5 mg/kg orally once a day for 14 days,15%
"C[C@@H]1C[C@H]2[C@@H]3CCC4=CC(=O)C=C[C@]4(C)[C@@]3(F)[C@@H](O)C[C@]2(C)[C@@]1(O)C(=O)CO [Dexamethasone, reference compound]",Arthritis inhibition rate (%),[2]; Dexamethasone 0.025 mg/kg orally once a day for 14 days,30%
